Assay results as given in patent US20240158348A1, “HERBICIDAL CYCLIC AMIDES N-SUBSTITUTED WITH A HALOALKYLSULFONYLANILIDE GROUP” (FMC Corporation, priority 2021, published 2024).

Legend:
Format in all cases: in vivo
soybean (Glycine max) = assay: Test C preemergence, soybean; details: 0 is no effect, 100 is complete control
Summary of the method: (§1)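 Greenhouse pot test. Compounds in a non-phytotoxic solvent with surfactant were applied to a loam–sand soil mix either preemergence as a directed spray or postemergence to plants at the one- to two-leaf stage; 0–100 visual ratings followed after 10 or 12 days.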

[1] = tested on: ragweed (common ragweed, Ambrosia artemisiifolia); assay: Test C postemergence, ragweed; details: for Ragweed plant response rating: visual injury, 0 to 100 scale (0 no effect, 100 complete control)
Summary of the method: as §1

[2] = tested on: horseweed (Erigeron canadensis); assay: Test C postemergence, horseweed; details: for Horseweed plant response rating: visual injury, 0 to 100 scale (0 no effect, 100 complete control); for Plant response rating (0 to 100 scale), Horseweed: 0 is no effect, 100 is complete control
Summary of the method: as §1

[3] = tested on: ryegrass, Italian (Italian ryegrass, Lolium multiflorum); assay: Test C preemergence, Italian ryegrass; details: 0 is no effect, 100 is complete control
Summary of the method: as §1

[4] = tested on: sedge, umbrella (small-flower umbrella sedge, Cyperus difformis); assay: Test D flooded paddy test, umbrella sedge; design: key: 0 = no effect, 100 = complete control; details: 250 g ai/ha, Flood; applied to paddy water at 2-leaf stage; visual rating after 13 days; scale 0 (no effect) to 100 (complete control)
Summary of the method: (§2)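 2-leaf plants; flood 3 cm over soil; cpd into paddy water; depth maintained; greenhouse 13 d; visual rating vs controls, 0 = no effect, 100 = complete control; dash = no result.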

[5] = tested on: wheat (Triticum aestivum); assay: Test C postemergence, wheat; details: for Wheat plant response rating: visual injury, 0 to 100 scale (0 no effect, 100 complete control)
Summary of the method: as §1

[6] = tested on: pigweed, palmer (palmer amaranth, Amaranthus palmeri); assay: Test C preemergence, palmer amaranth; details: 0 is no effect, 100 is complete control
Summary of the method: as §1

rice (Oryza sativa) = assay: Test D flooded paddy test, rice; design: key: 0 = no effect, 100 = complete control; details: 250 g ai/ha, Flood; applied to paddy water at 2-leaf stage; visual rating after 13 days; scale 0 (no effect) to 100 (complete control)
Summary of the method: as §2

corn (Zea mays) = assay: Test C postemergence, corn; details: for Corn plant response rating: visual injury, 0 to 100 scale (0 no effect, 100 complete control); for Plant response rating (0 to 100 scale), Corn: 0 is no effect, 100 is complete control
[7] = 125 g ai/ha Postemergence, 0 is no effect, 100 is complete control

| SMILES | Plant response rating (0 to 100 scale), Soybean (soybean (Glycine max); 31 g ai/ha Preemergence) | Plant response rating (0 to 100 scale), Soybean (soybean (Glycine max); 125 g ai/ha Preemergence) | Ragweed plant response rating ([1]; 31 g ai/ha Postemergence) | Ragweed plant response rating ([1]; 125 g ai/ha Postemergence) | Horseweed plant response rating ([2]; 31 g ai/ha Postemergence) | Plant response rating (0 to 100 scale), Horseweed ([2]; 125 g ai/ha Postemergence) | Plant response rating (0 to 100 scale), Ryegrass, Italian ([3]; 31 g ai/ha Preemergence) | Plant response rating (0 to 100 scale), Ryegrass, Italian ([3]; 125 g ai/ha Preemergence) | Plant response rating, Sedge, Umbrella [4] | Wheat plant response rating ([5]; 31 g ai/ha Postemergence) | Wheat plant response rating ([5]; 125 g ai/ha Postemergence) | Plant response rating (0 to 100 scale), Pigweed, Palmer ([6]; 31 g ai/ha Preemergence) | Plant response rating (0 to 100 scale), Pigweed, Palmer ([6]; 125 g ai/ha Preemergence) | Plant response rating, Rice (rice (Oryza sativa)) | Corn plant response rating (corn (Zea mays); 31 g ai/ha Postemergence) | Plant response rating (0 to 100 scale), Corn (corn (Zea mays); 125 g ai/ha Postemergence) | Horseweed plant response rating ([2]; 125 g ai/ha Postemergence) | Corn plant response rating (corn (Zea mays); 125 g ai/ha Postemergence) | Plant response rating (0 to 100 scale), Ragweed [1, 7] | Plant response rating (0 to 100 scale), Wheat [5, 7] |
| --- | --- | --- | --- | --- | --- | --- | --- | --- | --- | --- | --- | --- | --- | --- | --- | --- | --- | --- | --- | --- |
| Cc1c(NS(=O)(=O)C(F)(F)F)cc(N2CCCC(OC3CC3)C2=O)c(C)c1F (stereo not drawn) [Compound 35] | 50 | 90 | 60 | 90 | 90 | 100 | 100 | 100 | 95 | 60 | 60 | 100 | 100 | 0 | 50 | 90 |  |  |  |  |
| Cc1c(N2CCCC(OC3CCC3)C2=O)cc(N(COC(=O)C(C)(C)C)S(=O)(=O)C(F)(F)F)c(C)c1F (stereo not drawn) [Compound 39] | 0 | 60 | 30 | 80 | 70 | 90 | 0 | 60 | 95 | 0 | 60 | 0 | 40 | 0 | 0 | 10 |  |  |  |  |
| Cc1c(NS(=O)(=O)C(F)(F)F)cc(N2CCCC(OC3CCC3)C2=O)c(C)c1F (stereo not drawn) [Compound 36] | 90 | 90 | 40 | 90 | 40 | 70 | 100 | 100 | 95 | 60 | 60 | 90 | 100 | 0 | 0 | 20 |  |  |  |  |
| Cc1cc(C)c(N(COC(=O)C(C)(C)C)S(=O)(=O)C(F)(F)F)cc1N1CCC(OCC2CC2(F)F)C1=O (stereo not drawn) [Compound 54] | 0 | 30 | 50 | 80 | 70 |  | 0 | 90 | 98 | 30 | 70 | 0 | 50 | 0 | 0 |  | 90 | 80 |  |  |
| COC(=O)N(c1cc(N2CCC(OC3CC3)C2=O)c(C)cc1Cl)S(=O)(=O)C(F)(F)F (stereo not drawn) [Compound 40] | 70 | 90 | 60 | 80 | 80 | 80 | 90 | 100 | 90 | 60 | 70 | 80 | 100 | 0 | 80 | 100 |  |  |  |  |
| CC(=O)N(c1cc(N2CCC(OC3CC3)C2=O)c(C)cc1C)S(=O)(=O)C(F)(F)F (stereo not drawn) [Compound 17] | 80 | 100 | 70 |  | 70 | 100 | 100 | 100 | 95 | 70 |  | 80 | 100 | 15 | 90 | 90 |  |  | 90 | 70 |
